Experiments:
[1] = test system: DENV4 envelope structural protein; experiment: DENV-specific sandwich ELISA on treated DENV4 (antigenicity); format: binding, dengue virus serotype 4; conditions: for DENV4 antigenicity in the dual-oxidation system (ELISA): H2O2 0.01%, CuCl2 1 μM, each compound 10 μM, 20 hrs post-inactivation; for DENV4 antigenicity (retained neutralizing epitopes, ELISA): treated 20 hours at room temperature (FIG. 19B)
DENV4 = format: cell-based, dengue virus serotype 4
[2] = test system: DENV3 envelope structural protein; experiment: DENV-specific sandwich ELISA on treated DENV3 (antigenicity); format: binding, dengue virus 3; conditions: H2O2 0.01%, range of CuCl2 and FeCl3 concentrations
smallpox = conditions: in vivo; cited from earlier work
vaccinia virus = format: cell-based; conditions: added to H2O2 0.002%, CuCl2 1 μM; MZ 10 μM; PBS pH 7.5
[3] = human, in vivo, 152 mg/kg; cited from earlier work
Listeria monocytogenes = Listeria monocytogenes inactivation (CFU/mL); format: cell-based; conditions: added to H2O2 0.10%, CuCl2 10 μM; MZ 100 μM
Shigella dysenteriae = Shigella dysenteriae inactivation (CFU/mL); format: cell-based; conditions: added to H2O2 0.10%, CuCl2 10 μM; MZ 100 μM
CHIKV = format: cell-based, Chikungunya virus
[4] = test system: CHIKV E1 and E2 structural proteins; experiment: CHIKV-specific sandwich ELISA with two neutralizing monoclonal antibodies (antigenicity); format: binding, Chikungunya virus; conditions: for CHIKV antigenicity (retained neutralizing epitopes, ELISA): treated 20 hours at room temperature (FIG. 19A)
C. coli [5] = experiment: Campylobacter coli inactivation kinetics (viable bacteria, CFU/mL); format: cell-based; conditions: added to H2O2 0.01%, CuCl2 2 μM; MZ 20 μM
[6] = test system: YFV envelope structural protein
DENV2 = DENV2 inactivation kinetics at increasing total viral protein (PFU assay); format: cell-based, dengue virus 2; conditions: 3% H2O2, or 0.01% H2O2 and 1 μM CuCl2, room temperature
C. coli [7] = experiment: Campylobacter morphology after inactivation (Gram safranin stain); parameters: species or system Campylobacter coli; conditions: 3% H2O2 for 5 hours at room temperature, or dual oxidation

Compound: NNC(N)=S [thiosemicarbazide]
- DENV4 antigenicity in the dual-oxidation system (ELISA) [1]: superior antigenicity
- DENV4 inactivation in the dual-oxidation system (plaque assay) (DENV4): enhancement of inactivation

Compound: NNC(N)=O [semicarbazide]
- DENV4 antigenicity in the dual-oxidation system (ELISA) [1]: protection of protein antigens from oxidative damage
- DENV4 inactivation in the dual-oxidation system (plaque assay) (DENV4): do not appear to increase the rate of inactivation

Compound: [Cl][Fe]([Cl])[Cl] [FeCl3]
- DENV3 antigenicity with combinations of CuCl2 and FeCl3 (ELISA) [2]: enhanced antigenicity

Compound: CCCN1C(=O)C(=NNC(N)=S)c2ccccc21 [N-propylisatin β-thiosemicarbazone]
- DENV4 antigenicity in the dual-oxidation system (ELISA) [1]: superior antigenicity
- DENV4 inactivation in the dual-oxidation system (plaque assay) (DENV4): enhanced rates of inactivation

Compound: CN1C(=O)/C(=N\NC(N)=S)c2ccccc21 [methisazone, N-methylisatin β-thiosemicarbazone]
- close contacts who developed mild smallpox (smallpox): 0.27%
- close contacts who developed mild smallpox (cases/contacts) (smallpox): 3/1101
- deaths among close contacts (smallpox): no deaths
- non-vaccinated subjects who contracted smallpox (smallpox): 2%
- non-vaccinated subjects who contracted smallpox (cases/subjects) (smallpox): 2/102
- rate of dual-oxidation-based inactivation, vaccinia virus (vaccinia virus): substantially increase the rate
- serious adverse events [3]: lack of serious adverse events
- inactivation rate of Listeria monocytogenes (Listeria monocytogenes): substantially enhanced inactivation rates
- DENV4 antigenicity (retained neutralizing epitopes, ELISA) [1]: maintained or significantly improved antigenicity
- inactivation rate of Shigella dysenteriae (Shigella dysenteriae): substantially enhanced inactivation rates
- CHIKV inactivation in the absence of copper (CHIKV): minimal impact
- CHIKV inactivation rates with increasing methisazone relative to the transition metal (CHIKV): concomitant improvements
- increase of the rate of inactivation vs dual oxidation alone, CHIKV (CHIKV): 10- to 20 fold
- rate of dual-oxidation-based inactivation, CHIKV (CHIKV): substantially increase the rate
- CHIKV retained antigenicity with increasing methisazone relative to the transition metal ([4]; H2O2 0.02%, CuCl2 1 μM, ELISA at 20 hrs): concomitant improvements
- CHIKV antigenicity (retained neutralizing epitopes, ELISA) [4]: maintained or significantly improved antigenicity
- DENV4 inactivation in the absence of copper (DENV4): minimal impact
- increase of the rate of inactivation vs dual oxidation alone, DENV4 (DENV4): 10- to 20 fold
- rate of dual-oxidation-based inactivation, DENV4 (DENV4): substantially increase the rate
- inactivation rate of Campylobacter coli (C. coli [5]): substantially enhanced inactivation rates

Compound: NC(=S)NN=C1C(=O)Nc2ccccc21 [isatin β-thiosemicarbazone]
- DENV4 antigenicity in the dual-oxidation system (ELISA) [1]: superior antigenicity
- DENV4 inactivation in the dual-oxidation system (plaque assay) (DENV4): enhanced rates of inactivation

Compound: OO [3% H2O2, hydrogen peroxide]
- YFV antigenicity (neutralizing epitopes) [6]: severe damage to neutralizing epitopes
- dependence of virus inactivation kinetics on total viral protein concentration (DENV2): protein concentration-independent
- DENV4 antigenicity (retained neutralizing epitopes, ELISA) [1]: loss of neutralizing epitopes
- antigenicity, in vitro potency testing using envelope-specific MAbs ([4]; 3% H2O2 under standard conditions (7 hours, room temperature)): nearly complete loss of antigenicity
- CHIKV antigenicity (retained neutralizing epitopes, ELISA) [4]: loss of neutralizing epitopes
- bacterial morphology after inactivation (C. coli [7]): substantially damaged with clear changes in morphology

Compound: O=C1Nc2ccccc2C1=O [isatin]
- DENV4 antigenicity in the dual-oxidation system (ELISA) [1]: protection of protein antigens from oxidative damage
- DENV4 inactivation in the dual-oxidation system (plaque assay) (DENV4): do not appear to increase the rate of inactivation
